This is an account of results in ChEMBL document CHEMBL1287661, “Computational structure-activity relationship analysis of small-molecule agonists for human formyl peptide receptors” (Eur J Med Chem, 2010).

The target of assay [1] is T1, fMet-Leu-Phe receptor (Homo sapiens) (UniProt P21462).
T1 sequence (whole entry): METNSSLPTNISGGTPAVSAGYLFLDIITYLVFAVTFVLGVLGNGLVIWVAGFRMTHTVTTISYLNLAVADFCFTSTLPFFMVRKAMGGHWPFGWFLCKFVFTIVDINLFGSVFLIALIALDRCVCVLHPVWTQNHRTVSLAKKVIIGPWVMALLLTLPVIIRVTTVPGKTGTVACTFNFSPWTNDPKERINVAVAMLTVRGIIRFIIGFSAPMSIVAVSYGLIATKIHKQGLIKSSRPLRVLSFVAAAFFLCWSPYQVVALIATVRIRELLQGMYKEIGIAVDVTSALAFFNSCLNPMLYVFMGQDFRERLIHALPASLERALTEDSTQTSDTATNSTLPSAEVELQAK
As to the kind of experiment: Agonist activity at human FPR1 expressed in RBL-2H3 cells assessed as induction of calcium mobilization. The class given is functional, cell-based. (Calcium flux is commonly read through the fluorescence of an indicator in the cells.)

In assay [2] the target is T2, N-formyl peptide receptor 2 (Homo sapiens) (UniProt P25090).
T2 sequence (whole entry): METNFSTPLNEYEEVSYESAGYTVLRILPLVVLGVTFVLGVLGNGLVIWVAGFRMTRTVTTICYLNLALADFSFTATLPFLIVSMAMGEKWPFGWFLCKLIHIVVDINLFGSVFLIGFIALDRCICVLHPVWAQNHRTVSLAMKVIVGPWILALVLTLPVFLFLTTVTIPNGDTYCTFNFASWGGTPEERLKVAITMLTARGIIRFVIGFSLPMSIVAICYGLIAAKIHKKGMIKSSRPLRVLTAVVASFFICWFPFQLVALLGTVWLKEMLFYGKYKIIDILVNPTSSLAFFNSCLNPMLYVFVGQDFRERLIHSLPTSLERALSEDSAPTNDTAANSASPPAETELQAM
Put plainly: Agonist activity at human FPR2 expressed in RBL-2H3 cells assessed as induction of calcium mobilization. Type of assay: functional, cell-based.

Activity calls are given as the source filed them.

Regarding `CC1(C)CC(=O)C(C(c2cccc(OCc3ccccc3)c2)C2C(=O)CC(C)(C)CC2=O)C(=O)C1`, the outcome in assay [1] was Active.
Turning to `O=C(Cc1ccc(Br)cc1)N/N=C/C=C/c1ccccc1[N+](=O)[O-]`, in assay [2], the result was Active.
As for `O=C(CSc1nc2ccccc2[nH]1)Nc1ccc([N+](=O)[O-])cc1`, the result in assay [2] and in assay [1] was inactive.
As for `O=C(CN1CCN(c2ccccc2)CC1)Nc1ccccc1`, the result in assay [2] and in assay [1] was inactive.
Take `Cc1c(NC(=O)Nc2ccc(Br)cc2)c(=O)n(-c2ccccc2)n1C`: the result in assay [2] was Active.
For the compound `O=C(N/N=C/c1ccc(-c2cccc(Br)c2)o1)c1cccnc1`, the outcome in assay [2] was Active.
Consider `O=C(NCCc1ccc(Cl)cc1)Nc1ccccc1[N+](=O)[O-]`, for which the result in assay [2] and in assay [1] was inactive.
On to `Cc1ccc(Cl)cc1N1CCN(CC(=O)Nc2ccc(Br)cc2)CC1`, for which the result in assay [2] was Active.
`Cc1ccc2[nH]c(SCC(=O)Nc3cccc(C(F)(F)F)c3)nc2c1`: the result in assay [2] and in assay [1] was inactive.
On to `O=C(NNC(=O)c1ccccc1[N+](=O)[O-])c1ccc(Cl)cc1`, for which, in assay [2], the result was Active.
As for `O=C(N/N=C/c1ccc(-c2cccc(C(F)(F)F)c2)o1)c1ccc(F)cc1`, the outcome in assay [2] was Active.
The same measure, in the same setting: as for `COc1cccc(N2CCN(CC(=O)Nc3ccc(Br)cc3)CC2)c1`, the entry is “Active”.
Regarding `COc1ccc(NC(=S)NN2C(=O)CSC2c2c[nH]c3ccccc23)cc1` (configuration not stated), the result in assay [2] and in assay [1] was Active.
With `COc1ccc(NC(=O)Nc2ccc(C(=O)N3CCCCC3)cc2)cc1`, the result in assay [2] and in assay [1] was Active.
Consider `O=C(CN1CCN(c2ccc(Cl)cc2)CC1)Nc1ccc(Br)cc1`, for which the result in assay [2] was Active.
Consider `O=C(CN1CCN(c2ccccc2Cl)CC1)Nc1ccccc1`, for which the result in assay [2] and in assay [1] was inactive.
With `O=C(CN1CCN(c2ccccc2)CC1)Nc1ccc(F)c(Cl)c1`, the outcome in assay [2] and in assay [1] was inactive.
Take `CCOc1ccc2[nH]c(SCC(=O)Nc3ccc(OC)cc3)nc2c1`: in assay [1], the outcome was Active.
Regarding `CCc1c(NC(=O)Nc2ccc(Cl)cc2)c(=O)n(-c2ccccc2)n1C`, the result in assay [2] was Active.
Take `COc1ccc2[nH]c(SCC(=O)Nc3ccc([N+](=O)[O-])cc3)nc2c1`: the result in assay [1] was Active.
Take `Cc1ccc(N2CCN(CC(=O)Nc3ccc(Br)cc3)CC2)cc1Cl`: the outcome in assay [2] was Active.
With `COc1ccc2[nH]c(SCC(=O)Nc3ccccc3OC)nc2c1`, the outcome in assay [2] and in assay [1] was Active.
For `COc1ccc(CCNC(=O)Nc2ccc(F)cc2)cc1`, the outcome in assay [2] was Active.
Regarding `O=C(CN1CCN(c2ccccn2)CC1)Nc1ccc(Cl)cc1`, the result in assay [2] and in assay [1] was inactive.
On to `COc1cc(/C=N/NC(=O)c2ccc3c(c2)OCO3)ccc1OCc1ccccc1`, for which the outcome in assay [1] was Active.
For `O=C(CN1CCN(c2ccc(F)cc2)CC1)Nc1ccc(Br)cc1`, the outcome in assay [2] was Active.
As to `O=C(CN1CCN(c2cccc(Cl)c2)CC1)Nc1ccc(Br)cc1`, the outcome in assay [2] was Active.
For the compound `COc1ccc2[nH]c(SCC(=O)Nc3ccc(Br)cc3)nc2c1`, the outcome in assay [1] was Active.
Regarding `O=C(CN1CCN(c2ccccc2)CC1)Nc1ccc(Br)cc1`, the outcome in assay [2] was Active.
Still for that read-out and setting: for `O=C(CNc1ccccc1)N/N=C/C=C/c1ccccc1[N+](=O)[O-]` the value was “Active”.
Regarding `COc1ccccc1/C=C/C=N/NC(=O)Cc1cccs1`, the result in assay [2] and in assay [1] was inactive.
As to `CSCC[C@H](NC(=O)[C@H](Cc1ccc(O)cc1)NC(=O)[C@H](CCCCN)NC(=O)[C@@H](N)Cc1c[nH]c2ccccc12)C(=O)N[C@H](C(=O)N[C@H](CCSC)C(N)=O)C(C)C`, the outcome in assay [2] and in assay [1] was Active.
In the case of `O=C(CSc1nc2ccccc2[nH]1)Nc1cccc(Br)c1`, the result in assay [2] and in assay [1] was inactive.
As to `O=C(NCCc1ccccc1)Nc1ccccc1`, the outcome in assay [2] and in assay [1] was inactive.
`CCC(Nc1ccc(OC)cc1)C(=O)N/N=C(C)/C=C/c1ccccc1` (configuration not stated): in assay [2], the outcome was Active.
`Cc1cccc2[nH]c(SCC(=O)Nc3ccc(Cl)c([N+](=O)[O-])c3)nc12`: the result in assay [2] and in assay [1] was inactive.
In the case of `Cc1cccc(NC(=O)NCCc2ccc(Cl)cc2)c1`, the outcome in assay [2] and in assay [1] was inactive.
As to `O=C(CN1CCN(c2ccccc2)CC1)Nc1ccccc1Br`, the outcome in assay [2] and in assay [1] was inactive.
In the case of `O=C(Cc1ccccc1)N/N=C/C=C/c1ccccc1[N+](=O)[O-]`, the outcome in assay [2] and in assay [1] was inactive.
For `CC(C)c1c(NC(=O)Nc2ccc(Cl)cc2)c(=O)n(-c2ccccc2)n1C`, the result in assay [2] and in assay [1] was Active.
Regarding `O=C(CSc1nc2ccccc2s1)N/N=C/C=C/c1ccccc1[N+](=O)[O-]`, the outcome in assay [2] and in assay [1] was inactive.
Turning to `COc1ccc(CCNC(=O)Nc2ccc(Br)cc2)cc1`, the outcome in assay [2] was Active.
Take `COc1ccc(CCNC(=O)Nc2ccc(Cl)cc2Cl)cc1`: the outcome in assay [2] and in assay [1] was inactive.
Turning to `Cc1c(Cl)cccc1N1CCN(CC(=O)Nc2ccc(Br)cc2)CC1`, the outcome in assay [2] was Active.
Take `COc1ccc(CC(=O)N/N=C/C=C/c2ccccc2[N+](=O)[O-])cc1OC`: the outcome in assay [2] was Active.
For `COc1ccc(CCNC(=O)Nc2ccccc2)cc1`, the outcome in assay [2] was Active.
`CCOc1ccc(C(=O)NN2C(=O)c3ccccc3NC2c2ccc(OC)cc2)cc1` (configuration not stated): the outcome in assay [2] was Active.
With `COc1ccc2[nH]c(SCC(=O)Nc3ccccc3)nc2c1`, in assay [1], the outcome was Active.
As for `COc1cccc(Cc2cc(C)nn(CC(=O)Nc3ccc4c(c3)OCO4)c2=O)c1`, in assay [1], the result was Active.
Consider `O=C1NCC(c2ccccc2)C1C(=O)N/N=C/C=C/c1ccc(Br)cc1` (configuration not stated), for which the outcome in assay [2] and in assay [1] was inactive.
On to `COc1ccc2[nH]c(SCC(=O)Nc3ccc(OC)c(OC)c3)nc2c1`, for which the outcome in assay [2] and in assay [1] was Active.
As to `CCCC(C)c1ccc(OCC(=O)N/N=C/c2ccsc2)cc1` (configuration not stated), the result in assay [2] and in assay [1] was Active.
For the compound `O=C(CSc1nc2ccccc2[nH]1)Nc1ccccc1`, the result in assay [2] and in assay [1] was inactive.
As to `CCOc1ccc(NC(=O)CSc2nc3cc(OC)ccc3[nH]2)cc1`, the outcome in assay [1] was Active.
As for `Cc1ccc(CCNC(=O)Nc2ccc(F)cc2)cc1`, the result in assay [2] and in assay [1] was inactive.
As for `CCc1nc2ccccc2n1[C@@H]1CCN(C(=O)c2nc3cc(OC)ccc3[nH]2)C1`, in assay [2], the outcome was Active.
In the case of `COc1ccc2[nH]c(SCC(=O)Nc3ccc(Cl)cc3)nc2c1`, the outcome in assay [2] and in assay [1] was Active.
In the case of `O=C(CN1CCN(c2ccccc2)CC1)Nc1cccc(Br)c1`, the outcome in assay [2] and in assay [1] was inactive.
As for `O=C1NCC(c2ccccc2)C1C(=O)N/N=C/C=C/c1ccccc1[N+](=O)[O-]` (configuration not stated), the result in assay [2] was Active.
Same read-out and setting: for `CSc1ccc(NC(=O)Nc2c(C)n(C)n(-c3ccccc3)c2=O)cc1` the value was “Active”; for `COc1ccc(CCNC(=O)Nc2ccc(Cl)cc2)cc1`, “Active”.
Still for that read-out and setting: as for `COc1ccc(NC(=O)CCCCc2cccs2)cc1`, the entry is “Active”; as for `COc1ccc(C2Nc3ccccc3C(=O)N2NC(=O)c2ccc([N+](=O)[O-])cc2)cc1` (configuration not stated), “Active”.
For `COc1cccc(NC(=O)CSc2nc3cc(OC)ccc3[nH]2)c1`, in assay [1], the outcome was Active.
